The values below come from US20070238660A1 (priority 2006, published 2007).

This test concerns viruses. Briefly: Virus inactivation by fabric with attached dye under illumination. The settings on record: for virus inactivation (in words): low light illumination levels, FIG. 4. It counts as cell-based.

Regarding `Cc1cc2cc3cc(C)c(N)cc3nc2cc1N.Cl` [acridine yellow G], the “virus inactivation (in words)” value is listed as “unexpected efficiency in virus inactivation”. For the same compound, for the setting “exposure to light as low as 500 Lux”, the viruses inactivated result is given as “at least 99%”. Further, the “virus inactivation (in words)” value (listed as Acridine yellow G) is given as “very high virus inactivation”.
